Activity calls are given as the source filed them. No cut-off for these calls is given here.
Experiments:
MGC-803 [1] = assay: Antiproliferative activity against human MGC-803 cells assessed as reduction in cell viability incubated for 72 hrs by CCK-8 assay; type: functional, cell-based; details: MGC-803, 72 h
[2] = Metabolic stability in human liver microsomes assessed as half life; type: ADME, Microsome
[3] = target: Signal transducer and activator of transcription 3 (Homo sapiens) (UniProt P40763); assay: Inhibition of STAT3 (unknown origin) transcriptional signaling transfected in HEK293T cells at 3 uM incubated for 24 hrs by firefly luciferase gene reporter assay; type: cell-based
Chain of Signal transducer and activator of transcription 3 (Homo sapiens) (P40763 whole entry): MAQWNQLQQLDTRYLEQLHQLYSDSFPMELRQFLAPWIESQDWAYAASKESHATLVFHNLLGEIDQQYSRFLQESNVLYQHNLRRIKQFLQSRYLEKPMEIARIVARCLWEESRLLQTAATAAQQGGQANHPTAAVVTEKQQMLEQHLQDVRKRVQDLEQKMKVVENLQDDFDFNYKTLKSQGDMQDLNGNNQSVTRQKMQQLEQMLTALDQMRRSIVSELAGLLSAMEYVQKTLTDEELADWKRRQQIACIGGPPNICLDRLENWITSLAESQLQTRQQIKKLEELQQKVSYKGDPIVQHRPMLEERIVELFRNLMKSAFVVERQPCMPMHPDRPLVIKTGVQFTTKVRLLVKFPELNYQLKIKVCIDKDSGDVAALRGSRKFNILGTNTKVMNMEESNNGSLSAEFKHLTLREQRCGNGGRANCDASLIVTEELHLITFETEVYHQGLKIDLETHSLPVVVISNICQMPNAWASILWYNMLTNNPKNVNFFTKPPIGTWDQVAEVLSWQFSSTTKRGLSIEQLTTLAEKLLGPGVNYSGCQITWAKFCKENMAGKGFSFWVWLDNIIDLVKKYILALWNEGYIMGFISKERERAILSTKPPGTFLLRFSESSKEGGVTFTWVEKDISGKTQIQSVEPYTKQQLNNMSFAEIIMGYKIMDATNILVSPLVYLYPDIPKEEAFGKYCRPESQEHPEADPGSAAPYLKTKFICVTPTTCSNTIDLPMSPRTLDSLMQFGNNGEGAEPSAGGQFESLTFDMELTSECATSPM

[4] = target: Signal transducer and activator of transcription 3 (Homo sapiens) (UniProt P40763); assay: Thermal stabilization of STAT3 in human AGS cells at 1 uM at 37 to 54 degreeC incubated for 1 hr by cellular thermal shift assay; type: cell-based
[5] = target: Signal transducer and activator of transcription 3 (Homo sapiens) (UniProt P40763); assay: Inhibition of STAT3 in human MGC-803 cells assessed as inhibition of STAT3 phosphorylation level at Tyr705 at 0.3 to 3 uM by western blot assay; type: cell-based; details: dose 0.3-3 µM
[6] = target: Signal transducer and activator of transcription 3 (Homo sapiens) (UniProt P40763); assay: Inhibition of STAT3 in human MGC-803 cells assessed as inhibition of total STAT3 protein level at 0.3 to 3 uM by western blot assay; type: cell-based; details: dose 0.3-3 µM
[7] = target: Signal transducer and activator of transcription 3 (Homo sapiens) (UniProt P40763); assay: Inhibition of HA-tagged STAT3 (unknown origin) dimerization transfected in HEK293T cells at 0.3 to 3 uM incubated for 24 hrs followed by IL-6 stimulation and measured after 1 hr by immunoprecipitation assay; type: cell-based; details: dose 0.3-3 µM, time 25.0 hrs
AGS [8] = assay: Inhibition of colony formation in human AGS cells at 0.3 to 3 uM incubated for 10 to 15 days by crystal violet staining based assay; type: functional, cell-based; details: dose 0.3-3 µM, time 10-15 day
AGS [9] = assay: Induction of apoptosis in human AGS cells assessed as viable cells at 0.3 uM incubated for 48 hrs by Annexin V-FITC/PI staining based flow cytometry method (reference value: 94.8 %); type: functional; details: read-out: Activity
AGS [10] = assay: Induction of apoptosis in human AGS cells assessed as viable cells at 3 uM incubated for 48 hrs by Annexin V-FITC/PI staining based flow cytometry method (reference value: 94.8 %); type: functional; details: read-out: Activity
AGS [11] = assay: Induction of apoptosis in human AGS cells assessed as early apoptotic cells at 1 uM incubated for 48 hrs by Annexin V-FITC/PI staining based flow cytometry method (reference value: 2.38 %); type: functional
AGS [12] = assay: Induction of apoptosis in human AGS cells assessed as late apoptotic cells at 0.3 uM incubated for 48 hrs by Annexin V-FITC/PI staining based flow cytometry method (reference value: 2.46 %); type: functional
AGS [13] = assay: Induction of apoptosis in human AGS cells assessed as late apoptotic cells at 1 uM incubated for 48 hrs by Annexin V-FITC/PI staining based flow cytometry method (reference value: 2.46 %); type: functional
AGS [14] = assay: Induction of apoptosis in human AGS cells assessed as late apoptotic cells at 3 uM incubated for 48 hrs by Annexin V-FITC/PI staining based flow cytometry method (reference value: 2.46 %); type: functional
AGS [15] = assay: Induction of apoptosis in human AGS cells assessed as necrotic cells at 0.3 uM incubated for 48 hrs by Annexin V-FITC/PI staining based flow cytometry method (reference value: 0.32 %); type: functional
AGS [16] = assay: Induction of apoptosis in human AGS cells assessed as necrotic cells at 3 uM incubated for 48 hrs by Annexin V-FITC/PI staining based flow cytometry method (reference value: 0.32 %); type: functional
MGC-803 [17] = assay: Inhibition of cell migration in human MGC-803 cells at 0.03 to 0.3 uM incubated for 48 hrs by wound healing assay based microscopic analysis; type: functional; details: dose 0.03-0.3 µM
AGS [18] = assay: Inhibition of cell invasion in human AGS cells at 0.03 to 0.3 uM incubated for 12 hrs by crystal violet staining based transwell assay; type: functional; details: dose 0.03-0.3 µM
MGC-803 [19] = assay: Antitumor activity against human MGC-803 cells xenografted in BALB/c mouse assessed as inhibition of tumor weight at 5 to 15 mg/kg,ip administrated for 21 consecutive days; type: functional, organism-based; details: dose 5-15 mg/kg
MGC-803 [20] = assay: Antitumor activity against human MGC-803 cells xenografted in BALB/c mouse assessed as tumor growth inhibition at 5 mg/kg,ip administrated for 21 consecutive days relative to control; type: functional; details: read-out: TGI
MGC-803 [21] = assay: Antitumor activity against human MGC-803 cells xenografted in BALB/c mouse assessed as tumor growth inhibition at 15 mg/kg,ip administrated for 21 consecutive days relative to control; type: functional; details: read-out: TGI
[22] = Toxicity in BALB/c mouse xenografted with human MGC-803 cells assessed as body weight loss at 5 mg/kg,ip administrated for 21 consecutive days; type: organism-based; details: in vivo
[23] = Toxicity in BALB/c mouse xenografted with human MGC-803 cells assessed as body weight loss at 15 mg/kg,ip administrated for 21 consecutive days; type: organism-based; details: in vivo
[24] = Toxicity in BALB/c mouse xenografted with human MGC-803 cells assessed as morphological change in lung at 5 mg/kg,ip administrated for 21 consecutive days by hematoxylin and eosin staining method; type: organism-based; details: in vivo
[25] = Toxicity in BALB/c mouse xenografted with human MGC-803 cells assessed as morphological change in heart at 15 mg/kg,ip administrated for 21 consecutive days by hematoxylin and eosin staining method; type: organism-based; details: in vivo
[26] = Toxicity in BALB/c mouse xenografted with human MGC-803 cells assessed as morphological change in liver at 15 mg/kg,ip administrated for 21 consecutive days by hematoxylin and eosin staining method; type: organism-based; details: in vivo
[27] = Toxicity in BALB/c mouse xenografted with human MGC-803 cells assessed as morphological change in spleen at 15 mg/kg,ip administrated for 21 consecutive days by hematoxylin and eosin staining method; type: organism-based; details: in vivo
[28] = Toxicity in BALB/c mouse xenografted with human MGC-803 cells assessed as morphological change in lung at 15 mg/kg,ip administrated for 21 consecutive days by hematoxylin and eosin staining method; type: organism-based; details: in vivo
[29] = target: Signal transducer and activator of transcription 3 (Homo sapiens) (UniProt P40763); assay: In vivo inhibition of STAT3 in BALB/c mouse xenografted with human MGC-803 cells assessed as reduction of STAT3 phosphorylation level at Tyr705 in tumor at 5 mg/kg,ip administrated for 21 consecutive days by immunohistochemistry analysis; type: functional, organism-based
[30] = target: Signal transducer and activator of transcription 3 (Homo sapiens) (UniProt P40763); assay: In vivo inhibition of STAT3 in BALB/c mouse xenografted with human MGC-803 cells assessed as reduction of STAT3 phosphorylation level at Tyr705 in tumor at 15 mg/kg,ip administrated for 21 consecutive days by immunohistochemistry analysis; type: functional, organism-based
[31] = target: Signal transducer and activator of transcription 3 (Homo sapiens) (UniProt P40763); assay: In vivo inhibition of STAT3 in BALB/c mouse xenografted with human MGC-803 cells assessed as reduction of c-Myc expression in tumor at 15 mg/kg,ip administrated for 21 consecutive days by immunohistochemistry analysis; type: functional, organism-based
[32] = target: Signal transducer and activator of transcription 3 (Homo sapiens) (UniProt P40763); assay: In vivo inhibition of STAT3 in BALB/c mouse xenografted with human MGC-803 cells assessed as reduction of Mcl-1 expression in tumor at 5 mg/kg,ip administrated for 21 consecutive days by immunohistochemistry analysis; type: functional, organism-based
[33] = target: Signal transducer and activator of transcription 3 (Homo sapiens) (UniProt P40763); assay: In vivo inhibition of STAT3 in BALB/c mouse xenografted with human MGC-803 cells assessed as reduction of Mcl-1 expression in tumor at 15 mg/kg,ip administrated for 21 consecutive days by immunohistochemistry analysis; type: functional, organism-based

In the case of Cc1cc(NC(=O)c2ccc([N+](=O)[O-])o2)ccc1-c1cnc2ccccn12, the IC50 (MGC-803 [1]) is reported as 900 nM, the half-life [2] is reported as 41.2 min and the inhibition [3] is reported as “Active”. The Activity [4] was “Active”, the inhibition [5] was “Dose-Dependent Effect” and the inhibition [6] was “inactive”. For the same molecule, the inhibition [7] was “Dose-Dependent Effect”, the inhibition (AGS [8]) was “Dose-Dependent Effect” and the viability at 0.3 µM (AGS [9]) was 93.7%. It also gave a viability at 3 µM (AGS [10]) of 81.3%, an Activity (AGS [11]) of 4.52% and an Activity (AGS [12]) of 3.15%. It also gave an Activity (AGS [13]) of 2.67%, an Activity (AGS [14]) of 6.37% and an Activity (AGS [15]) of 0.62%. The Activity (AGS [16]) was 0.18%, the inhibition (MGC-803 [17]) was “Dose-Dependent Effect” and the inhibition (AGS [18]) was “Active”. For the same molecule, the inhibition (MGC-803 [19]) was “Dose-Dependent Effect”, the inhibition in vivo at 5 mg/kg (MGC-803 [20]) was 47.1% and the inhibition in vivo at 15 mg/kg (MGC-803 [21]) was 73.4%. For the same molecule, the Activity [22] was “Non-Toxic”, the Activity [23] was “Non-Toxic” and the Activity [24] was “Non-Toxic”. The Activity [25] was “Non-Toxic”, the Activity [26] was “Non-Toxic” and the Activity [27] was “Non-Toxic”. For the same molecule, the Activity [28] was “Non-Toxic”, the inhibition [29] was “Active” and the inhibition [30] was “Active”. The inhibition [31] was “Active”, the inhibition [32] was “Active” and the inhibition [33] was “Active”.
